Target: T1, PI3Kδ (Homo sapiens, UniProt O00329)
T1 construct: The protein is full length and co-expressed with untagged PIK3R1; GST; purchased Invitrogen PV5274
Assay: PI3Kδ inhibition, modified PIK3CD Adapta TR-FRET assay
Type: biochemical
Settings: recombinant GST-tagged full length PIK3CD co-expressed with PIK3R1 (p85α); 2 μM ATP, 50 μM PIP2; read-out: PI3Kδ Inhibition (pIC50) (converted)
How it was run: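 Full-length GST-PIK3CD co-expressed with p85α was run in 50 mM HEPES pH 7.5, 3 mM MgCl2, 1 mM EGTA, 100 mM NaCl, 0.03% CHAPS, 2 mM DTT, 1% DMSO, with 12-point compound titrations. Reactions at room temperature were started with solution containing 2 μM ATP and 50 μM PIP2. ADP was detected by Adapta TR-FRET (620 nm-ratioed).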

T1 sequence (O00329 whole entry): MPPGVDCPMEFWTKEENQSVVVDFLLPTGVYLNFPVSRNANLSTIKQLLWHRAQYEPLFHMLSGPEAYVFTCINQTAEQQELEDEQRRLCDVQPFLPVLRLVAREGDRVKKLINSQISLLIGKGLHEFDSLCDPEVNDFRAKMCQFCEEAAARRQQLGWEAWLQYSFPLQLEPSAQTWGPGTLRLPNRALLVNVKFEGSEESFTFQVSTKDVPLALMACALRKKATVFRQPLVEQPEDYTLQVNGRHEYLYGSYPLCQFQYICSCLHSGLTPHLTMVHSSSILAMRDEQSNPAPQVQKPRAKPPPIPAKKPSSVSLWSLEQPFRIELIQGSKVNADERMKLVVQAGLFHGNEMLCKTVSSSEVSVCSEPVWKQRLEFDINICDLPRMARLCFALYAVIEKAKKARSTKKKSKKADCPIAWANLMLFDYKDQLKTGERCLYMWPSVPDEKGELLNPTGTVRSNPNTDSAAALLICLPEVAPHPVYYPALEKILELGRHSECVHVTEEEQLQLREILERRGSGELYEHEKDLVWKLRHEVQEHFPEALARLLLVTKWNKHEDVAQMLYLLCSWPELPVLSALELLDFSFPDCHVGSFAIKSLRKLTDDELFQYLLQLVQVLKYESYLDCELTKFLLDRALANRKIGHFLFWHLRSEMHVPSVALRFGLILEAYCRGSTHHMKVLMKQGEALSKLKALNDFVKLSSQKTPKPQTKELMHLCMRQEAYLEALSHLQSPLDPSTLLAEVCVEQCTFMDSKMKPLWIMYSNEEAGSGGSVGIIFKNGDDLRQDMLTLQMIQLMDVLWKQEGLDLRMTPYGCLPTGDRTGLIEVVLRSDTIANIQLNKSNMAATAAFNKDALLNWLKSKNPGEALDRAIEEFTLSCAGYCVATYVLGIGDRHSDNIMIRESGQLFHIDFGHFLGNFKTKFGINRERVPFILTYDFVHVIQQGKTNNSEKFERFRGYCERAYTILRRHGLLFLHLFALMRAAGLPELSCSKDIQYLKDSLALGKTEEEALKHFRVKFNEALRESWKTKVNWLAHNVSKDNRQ
T1 sequence (P27986 whole entry partner): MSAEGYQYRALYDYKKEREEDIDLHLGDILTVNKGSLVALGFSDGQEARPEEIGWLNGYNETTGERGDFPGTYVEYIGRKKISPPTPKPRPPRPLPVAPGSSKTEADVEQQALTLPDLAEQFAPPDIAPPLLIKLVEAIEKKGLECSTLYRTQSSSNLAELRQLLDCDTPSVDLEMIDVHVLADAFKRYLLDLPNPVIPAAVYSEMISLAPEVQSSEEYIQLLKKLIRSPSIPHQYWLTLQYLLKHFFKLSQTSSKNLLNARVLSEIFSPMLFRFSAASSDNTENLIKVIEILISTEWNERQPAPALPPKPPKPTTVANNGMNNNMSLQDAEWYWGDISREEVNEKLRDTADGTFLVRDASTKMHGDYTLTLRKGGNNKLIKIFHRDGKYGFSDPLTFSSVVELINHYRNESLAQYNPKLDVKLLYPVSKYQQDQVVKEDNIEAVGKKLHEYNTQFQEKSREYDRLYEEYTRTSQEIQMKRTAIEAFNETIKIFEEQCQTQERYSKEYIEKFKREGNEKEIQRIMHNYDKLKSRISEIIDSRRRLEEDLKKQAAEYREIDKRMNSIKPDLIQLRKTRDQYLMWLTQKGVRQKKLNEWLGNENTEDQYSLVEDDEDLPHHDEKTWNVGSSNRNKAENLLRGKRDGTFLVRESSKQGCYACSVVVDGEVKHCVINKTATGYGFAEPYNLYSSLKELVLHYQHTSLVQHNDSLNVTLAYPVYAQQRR

IC50 | Compound
3160 nM | COc1cccc2c(-c3ncc4c(n3)N3CCOCC3C(=O)N4Cc3ccc(S(C)(=O)=O)cc3)c[nH]c12 (stereo not drawn) [Example 138, 2-(7-methoxy-1H-indol-3-yl)-5-(4-(methylsulfonyl)benzyl)-6a,7,9,10-tetrahydro-[1,4]oxazino[3,4-h]pteridin-6(5H)-one]
501 nM | O=C(Cc1c(F)cccc1F)N1CC2COCCN2c2nc(-c3cccc4[nH]ccc34)ncc21 (stereo not drawn) [Example 54]
20 nM | O=C(CN1C[C@@H]2COCCN2c2nc(-c3cccc4[nH]ccc34)ncc21)NCC1CCOCC1 [Example 73, (R)-2-(2-(1H-indol-4-yl)-6a,7,9,10-tetrahydro-[1,4]oxazino[3,4-h]pteridin-5(6H)-yl)-N-((tetrahydro-2H-pyran-4-yl)methyl)acetamide]
20 nM | c1cc(-c2ncc3c(n2)N2CCOCC2CN3Cc2ncco2)c2cc[nH]c2c1 (stereo not drawn) [Example 39, 2-(1H-indol-4-yl)-5-(oxazol-2-ylmethyl)-5,6,6a,7,9,10-hexahydro-[1,4]oxazino[3,4-h]pteridine]
1.58 nM | CC(C)Cc1nnc(C(C)N2C[C@@H]3COCCN3c3nc(-c4cccc(CO)c4)ncc32)o1 (stereo partly drawn) [Example 176]
316 nM | N#Cc1ccc(F)cc1CN1CC2COCCN2c2nc(-c3cccc4[nH]ccc34)ncc21 (stereo not drawn) [Example 46, 2-((2-(1H-indol-4-yl)-6a,7,9,10-tetrahydro-[1,4]oxazino[3,4-h]pteridin-5(6H)-yl)methyl)-4-fluorobenzonitrile]
1000 nM | COCc1cccc(-c2ncc3c(n2)N2CCOC[C@H]2CN3CC(=O)NCC2CCOCC2)c1 [Example 216, (R)-2-(2-(3-(methoxymethyl)phenyl)-6a,7,9,10-tetrahydro-[1,4]oxazino[3,4-h]pteridin-5(6H)-yl)-N-((tetrahydro-2H-pyran-4-yl)methyl)acetamide]
3.16 nM | c1cc(-c2ncc3c(n2)N2CCOC[C@H]2CN3C2CCOCC2)c2cc[nH]c2c1 [Example 192, (R)-2-(1H-indol-4-yl)-5-(tetrahydro-2H-pyran-4-yl)-5,6,6a,7,9,10-hexahydro-[1,4]oxazino[3,4-h]pteridine]
20 nM | CS(=O)(=O)c1ccc(CN2CC3COCCN3c3nc(-c4cccc5[nH]ncc45)ncc32)cc1 (stereo not drawn) [Example 22, 2-(1H-indazol-4-yl)-5-(4-(methylsulfonyl)benzyl)-5,6,6a,7,9,10-hexahydro-[1,4]oxazino[3,4-h]pteridine]
20 nM | CNC(=O)Nc1ccc(-c2ncc3c(n2)N2CCOCC2C(=O)N3C2CCc3ccc(Cl)cc32)cc1 (stereo not drawn) [Example 147, 1-(4-(5-(6-chloro-2,3-dihydro-1H-inden-1-yl)-6-oxo-5,6,6a,7,9,10-hexahydro-[1,4]oxazino[3,4-h]pteridin-2-yl)phenyl)-3-methylurea]
7940 nM | CNC(=O)c1ccc(-c2ncc3c(n2)N2CCOCC2C(=O)N3Cc2ccc(S(C)(=O)=O)cc2)cn1 (stereo not drawn) [Example 109, N-methyl-5-(5-(4-(methylsulfonyl)benzyl)-6-oxo-5,6,6a,7,9,10-hexahydro-[1,4]oxazino[3,4-h]pteridin-2-yl)picolinamide]
316 nM | CC(=O)Nc1ccc(-c2ncc3c(n2)N2CCOC[C@H]2CN3CC(=O)NCC2CCOCC2)cc1 [Example 224, (R)-2-(2-(4-acetamidophenyl)-6a,7,9,10-tetrahydro-[1,4]oxazino[3,4-h]pteridin-5(6H)-yl)-N-((tetrahydro-2H-pyran-4-yl)methyl)acetamide]
3160 nM | CC(=O)N1CC2COCCN2c2nc(-n3c(C)nc4ccccc43)ncc21 (stereo not drawn) [Example 56, 1-(2-(2-methyl-1H-benzo[d]imidazol-1-yl)-6a,7,9,10-tetrahydro-[1,4]oxazino[3,4-h]pteridin-5(6H)-yl)ethanone]
251 nM | O=C(OCc1ccccc1)N1CC2COCCN2c2nc(-c3cccc4[nH]ccc34)ncc21 (stereo not drawn) [Example 53, benzyl 2-(1H-indol-4-yl)-6a,7,9,10-tetrahydro-[1,4]oxazino[3,4-h]pteridine-5(6H)-carboxylate]
251 nM | O=C(Cc1ccccc1)N1CC2COCCN2c2nc(-c3cccc4[nH]ccc34)ncc21 (stereo not drawn) [Example 48, 1-(2-(1H-indol-4-yl)-6a,7,9,10-tetrahydro-[1,4]oxazino[3,4-h]pteridin-5(6H)-yl)-2-phenylethanone]
31.6 nM | CS(=O)(=O)c1ccc(CN2C(=O)C3COCCN3c3nc(-c4cnc5cc[nH]c5c4)ncc32)cc1 (stereo not drawn) [Example 121, 5-(4-(methylsulfonyl)benzyl)-2-(1H-pyrrolo[3,2-b]pyridin-6-yl)-6a,7,9,10-tetrahydro-[1,4]oxazino[3,4-h]pteridin-6(5H)-one]

IC50 | Compound
10 nM | CCc1nnc(CN2CC3COCCN3c3nc(-c4cccc5[nH]ccc45)ncc32)o1 (stereo not drawn) [Example 35, 5-((5-ethyl-1,3,4-oxadiazol-2-yl)methyl)-2-(1H-indol-4-yl)-5,6,6a,7,9,10-hexahydro-[1,4]oxazino[3,4-h]pteridine]
631 nM | CC(=O)N1CC2COCCN2c2nc(-n3c(C(F)F)nc4ccccc43)ncc21 (stereo not drawn) [Example 55, 1-(2-(2-(difluoromethyl)-1H-benzo[c]imidazol-1-yl)-6a,7,9,10-tetrahydro-[1,4]oxazino[3,4-h]pteridin-5(6H)-yl)ethanone]
7.94 nM | CS(=O)(=O)c1ccc(CN2CC3COCCN3c3nc(-c4cnc(N)nc4)ncc32)c(Cl)c1 (stereo not drawn) [Example 7, 5-(5-(2-chloro-4-(methylsulfonyl)benzyl)-5,6,6a,7,9,10-hexahydro-[1,4]oxazin[3,4-h]pteridin-2-yl)pyrimidin-2-amine]
251 nM | Cc1nc(-c2cccc3[nH]ccc23)nc2c1N(CC1CC1)CC1COCCN21 (stereo not drawn) [Example 27, 5-(cyclopropylmethyl)-2-(1H-indol-4-yl)-4-methyl-5,6,6a,7,9,10-hexahydro-[1,4]oxazino[3,4-h]pteridine]
158 nM | COCCNC(=O)CN1C[C@@H]2COCCN2c2nc(-c3cccc4[nH]ccc34)ncc21 [Example 204, (R)-2-(2-(1H-indol-4-yl)-6a,7,9,10-tetrahydro-[1,4]oxazino[3,4-h]pteridin-5(6H)-yl)-N-(2-methoxyethyl)acetamide]
63.1 nM | CS(=O)(=O)c1ccc(CN2CC3COCCN3c3nc(-c4cnc5cc[nH]c5c4)ncc32)cc1 (stereo not drawn) [Example 24, 5-(4-(methylsulfonyl)benzyl)-2-(1H-pyrrolo[3,2-b]pyridin-6-yl)-5,6,6a,7,9,10-hexahydro-[1,4]oxazino[3,4-h]pteridine]
398 nM | CCc1ccccc1N1C[C@@H]2COCCN2c2nc(-c3cccc4[nH]ccc34)ncc21 [Example 184, (R)-5-(2-ethyl-phenyl)-2-(1H-indol-4-yl)-5,6,6a,7,9,10-hexahydro-[1,4]oxazino[3,4-h]pteridine]
10 nM | CNC(=O)Nc1ccc(-c2ncc3c(n2)N2CCOCC2CN3Cc2ccc(S(C)(=O)=O)cc2Cl)cc1 (stereo not drawn) [Example 6, 1-(4-(5-(2-chloro-4-(methylsulfonyl)benzyl)-5,6,6a,7,9,10-hexahydro-[1,4]oxazino[3,4-h]pteridin-2-yl)phenyl)-3-methylurea]
7.94 nM | CNC(=O)Nc1ccc(-c2ncc3c(n2)N2CCOCC2C(=O)N3C2CCOCC2)cc1 (stereo not drawn) [Example 158, 1-methyl-3-(4-(6-oxo-5-(tetrahydro-2H-pyran-4-yl)-5,6,6a,7,9,10-hexahydro-[1,4]oxazino[3,4-h]pteridin-2-yl)phenyl)urea]
10 nM | CS(=O)(=O)c1ccc(CN2CC3COCCN3c3nc(-c4cccc5[nH]ccc45)ncc32)cc1 (stereo not drawn) [Example 19, 2-(1H-indol-4-yl)-5-(4-(methylsulfonyl)benzyl)-5,6,6a,7,9,10-hexahydro-[1,4]oxazino[3,4-h]pteridine]
3160 nM | CS(=O)(=O)c1ccc(CN2C(=O)C3COCCN3c3nc(-c4cccc(-c5cc[nH]n5)c4)ncc32)cc1 (stereo not drawn) [Example 110, 2-(3-(1H-pyrazol-3-yl)phenyl)-5-(4-(methylsulfonyl)benzyl)-6a,7,9,10-tetrahydro-[1,4]oxazino[3,4-h]pteridin-6(5H)-one]
200 nM | O=C(CN1C[C@@H]2COCCN2c2nc(-c3cccc4[nH]ccc34)ncc21)NC1CCOCC1 [Example 205, (R)-2-(2-(1H-indol-4-yl)-6a,7,9,10-tetrahydro-[1,4]oxazino[3,4-h]pteridin-5(6H)-yl)-N-(tetrahydro-2H-pyran-4-yl)acetamide]
1000 nM | CCc1nnc(CN2C[C@@H]3COCCN3c3nc(-c4cncc5[nH]ccc45)ncc32)o1 [Example 167, (R)-5-((5-ethyl-1,3,4-oxadiazol-2-yl)methyl)-2-(1H-pyrrolo[2,3-c]pyridin-4-yl)-5,6,6a,7,9,10-hexahydro-[1,4]oxazino[3,4-h]pteridine]
158 nM | OCCN1C[C@@H]2COCCN2c2nc(-c3cccc4[nH]ccc34)ncc21 [Example 173, (R)-2-(2-(1H-indol-4-yl)-6a,7,9,10-tetrahydro-[1,4]oxazino[3,4-h]pteridin-5(6H)-yl)ethanol]
1000 nM | CC(C)(O)c1cccc(-c2ncc3c(n2)N2CCOC[C@H]2CN3CC(=O)NCC2CCOCC2)c1 [Example 83, (R)-2-(2-(3-(2-hydroxypropan-2-yl)phenyl)-6a,7,9,10-tetrahydro-[1,4]oxazino[3,4-h]pteridin-5(6H)-yl)-N-((tetrahydro-2H-pyran-4-yl)methyl)acetamide]
1.58 nM | CCc1nnc(C(C)N2C[C@@H]3COCCN3c3nc(-c4cccc5[nH]ccc45)ncc32)o1 (stereo partly drawn) [Example 178, (6aR)-5-(1-(5-ethyl-1,3,4-oxadiazol-2-yl)ethyl)-2-(1H-indol-4-yl)-5,6,6a,7,9,10-hexahydro-[1,4]oxazino[3,4-h]pteridine]

Compound | IC50
CS(=O)(=O)c1ccc(CN2C(=O)C3COCCN3c3nc(-c4ccc5cn[nH]c5c4)ncc32)cc1 (stereo not drawn) [Example 124, 2-(1H-indazol-6-yl)-5-(4-(methylsulfonyl)benzyl)-6a,7,9,10-tetrahydro-[1,4]oxazino[3,4-h]pteridin-6(5H)-one] | 3980 nM
